Tested on: normal eye growth in guinea pigs
Assay: Eye drops on normal growth and emmetropization (no lens wear)
Format: in vivo, guinea pig (Cavia porcellus)
Conditions: eye drops twice daily 9-16 days of age
Protocol: Two experimental protocols were employed (see Table 4). In Experiment 1, young guinea pigs wore a −6D lens on one eye from 5-12 days of age. They were randomly divided within each litter into two groups of 10 animals each, and received either a drop of L-Arginine (100 mM, 1.7%) in Saline (pH 7.4) or Saline alone (0.9%, pH 7.4) twice per day in the eye wearing the lens (Table 4). Drops were administered at the beginning of their light cycle and again approximately 6 hrs later in the middle of their day cycle. Lenses were removed during the drop administration which occurred under dim red light or in darkness. A single large drop was bathed on the cornea for 3 min in the lens-wearing eye in hand held animals. A clean lens was then reintroduced onto the eye. In Experiment 2, 14 guinea pigs were given eye drops in the same manner as in Experiment 1, but in both eyes and without any lens-wear, to determine the effect of the eye drops on normal eye growth. Animals received one drop of either 1.7% L-arginine (n=7) or atropine (Minims Atropine Sulphate 1%, Bausch & Lomb, preservative free, n=7) in one eye and saline (0.9%) in the other eye twice per day from 9-16 days of age.
In Experiment 1, at the end of the lens-wearing period, at 12 days of age just before the morning lights came on, both eyes were cyclopleged (1% Cyclopentolate—to paralyse the focussing muscles of the eye to a resting state) and 1.25 hours later, refractive error (RE) was measured. Animals were then anaesthetised with gaseous anaesthetic (1.5% isoflurane in oxygen) and eye length measures were taken in both eyes with high frequency ultrasound as described in Example 1. Biometry measures were also taken in the same manner before the lens wear period at 5 days of age. [No refractive measures were done at 5 days of age as cycloplegia could have interfered with the drug or lens response]. In Experiment 2, refractive error and eye length using ultrasound were measured in the same manner at 17 days of age, 24 hours after the previous drop was administered.
After cycloplegia was induced, refractive error was measured in each eye using an Autorefractor (Nidek AR-20, Japan). The spherical equivalent was calculated as the average of the sphere plus half the cylinder as is normal in clinical practice. All reported refractive errors are the spherical equivalent. Next, ocular length was measured using high frequency ultrasound (20 MHz) as previously described (McFadden et al, 2004). At least 20 traces were recorded for each eye and distances were averaged for at least 10 of these recordings. Peaks from the recordings were selected for the back of the cornea, the crystalline lens, and the vitreous chamber, and the layers at the back of the eye: the retina, choroid, and sclera. Ocular length was defined as the summed measurement from the front of the cornea to the back of the sclera.
Differences between the two eyes were analysed by a 2-tailed T-tests. The mean of calculated differences between the two eyes is referred to as relative myopia or relative ocular length and the difference in the change in ocular length in the treated compared to the untreated eye as relative growth.

N=C(N)NCCC[C@H](N)C(=O)O [L-arginine]
ocular length on average (measured at 17 days, p=0.22 between groups): 8.124 mm
mean refractive error, both eyes averaged (measured at 17 days, p=0.32 between groups): +4.43
effect on refractive error (drug eye vs saline eye) (no lens, 1.7% LA (p=0.69) or 1% Atropine (p=0.40)): did not affect the refractive error of the eye
difference between the two eyes in ocular length (drug eye vs saline control eye) (LA p=0.39, ATR p=0.42): −33 μm
